Laboratory results published in ChEMBL document CHEMBL5335803, “Potential of several triazene derivatives against DENGUE viruses” (Bioorg Med Chem Lett, 2024).
pEC50: −log10 of the molar value.

Experiments:
Dengue virus [1] = test: Antiviral activity against DENV infected in human Huh-7 cells assessed as reduction in viral growth incubated for 72 hrs by flow cytometry; type: functional, organism-based; details: Huh-7, 72 h
[2] = Cytotoxicity against human Huh-7 cells infected with DENV assessed as reduction in cell viability by microplate spectrophotometry; type: toxicity, cell-based
Dengue virus [3] = test: Antiviral activity against DENV infected in human Huh-7 cells assessed as percent of infected cells at 50 uM incubated for 72 hrs by flow cytometry relative to control; type: functional
[4] = Selectivity index, ratio of CC50 for human Huh-7 cells to EC50 for DENV infected in Huh-7 cells; type: toxicity, cell-based; details: read-out: Selectivity Index
Dengue virus [5] = test: Antiviral activity against DENV infected in human Huh-7 cells assessed as percent of infected cells at 12.5 uM incubated for 72 hrs by flow cytometry relative to control; type: functional

SMILES	pEC50 (Dengue virus [1])	CC50 [2] [µM]	Activity (Dengue virus [3])	selectivity ratio [4]	Activity (Dengue virus [5]) [%]
Brc1cccc(/N=N/Nc2ccccn2)c1	5.07	27.4	<=20%	–	–
FC(F)(F)c1ccc(/N=N/Nc2ccncc2)cc1	–	11.9	–	–	–
COc1ccc(/N=N/Nc2ccncc2)cc1	4.32	28.5	22%	–	–
CCN(CC)/N=N/c1ccc(OC)cc1	< 4.30	24.4	22%	–	–
COc1ccc(/N=N/n2ccnc2)cc1	4.49	72	22%	2.22	–
FC(F)(F)c1ccc(/N=N/n2ccnc2)cc1	5.11	> 100	<=20%	> 12.8	0
c1ccc(/N=N/Nc2ccccn2)cc1	4.97	22.1	<=20%	–	–
CN(/N=N/c1cccnc1)c1ccccc1	4.93	20.6	–	–	–
c1cncc(/N=N/N2CCCc3ccccc32)c1	5.10	7.09	22%	–	–
COc1ccc(/N=N/Nc2ncccc2C)cc1	4.94	> 100	22%	–	–
Brc1ccc(/N=N/Nc2ccccn2)cc1	5.09	75.6	<=20%	9.36	–
COc1ccc(/N=N/Nc2ccccn2)cc1	> 5.81	15.5	<=20%	–	–
O[C@H]1[C@H]2c3cc4c(cc3CN3CCC(=C[C@@H]1O)[C@H]23)OCO4 [LYCORINE]	5.77	–	–	–	–
NC(=O)c1ncn([C@@H]2O[C@H](CO)[C@@H](O)[C@H]2O)n1 [RIBAVIRIN]	4.39	–	–	–	–
